Active and inactive are the calls of the source. The calls are words filed in the database; no cut-off is given here.
Key:
Hepatitis B virus [1] = experiment: Antiviral activity against HBV infected in human HepG2-NTCP cells assessed as reduction in HBeAg secretion incubated for 24 hrs followed replacement with fresh medium and measured at day 5 post infection by ELISA; assay type: functional, organism-based
[2] = target: T1, Hepatic sodium/bile acid cotransporter (Homo sapiens, UniProt Q14973); experiment: Inhibition of human NTCP-mediated [3H]-TCA uptake expressed in human HepG2 cells in presence of 20 % FBS; assay type: cell-based
T1 sequence (Q14973 whole entry): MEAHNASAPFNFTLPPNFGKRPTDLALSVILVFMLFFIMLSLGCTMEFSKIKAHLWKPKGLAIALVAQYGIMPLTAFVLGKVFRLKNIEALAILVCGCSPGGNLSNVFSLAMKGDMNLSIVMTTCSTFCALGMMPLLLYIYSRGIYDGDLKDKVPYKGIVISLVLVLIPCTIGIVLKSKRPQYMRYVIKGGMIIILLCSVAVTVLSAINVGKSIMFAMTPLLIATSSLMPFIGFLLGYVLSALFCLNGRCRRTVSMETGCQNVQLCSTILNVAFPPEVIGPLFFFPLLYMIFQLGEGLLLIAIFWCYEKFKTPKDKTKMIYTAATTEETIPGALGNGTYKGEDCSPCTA

[3] = Stability in mouse liver microsomes assessed as half life at 1 uM preincubated for 5 mins followed by NADPH addition and measured upto 60 mins by LC-MS analysis; assay type: ADME, Microsome; details: time 65 min
[4] = Stability in mouse liver microsomes assessed as intrinsic clearance at 1 uM preincubated for 5 mins followed by NADPH addition and measured upto 60 mins by LC-MS analysis; assay type: ADME, Microsome; details: time 65 min, read-out: CLH
[5] = target: T1, Hepatic sodium/bile acid cotransporter; experiment: Inhibition of human NTCP-mediated [3H]-TCA uptake expressed in human HepG2 cells in presence of 50 % FBS; assay type: cell-based
[6] = target: T1, Hepatic sodium/bile acid cotransporter; experiment: Inhibition of human NTCP-mediated [3H]-TCA uptake expressed in human HepG2 cells pretreated for 2 hrs followed by [3H]-TCA addition in absence of FBS; assay type: cell-based
[7] = target: T1, Hepatic sodium/bile acid cotransporter; experiment: Inhibition of human NTCP-mediated [3H]-TCA uptake expressed in human HepG2 cells at 3.3 uM incubated for 10 mins by liquid scintillation counter analysis; assay type: cell-based; details: hepg2, 10 min
Hepatitis B virus [8] = experiment: Antiviral activity against HBV infected in human HepG2-NTCP cells assessed as reduction in HBeAg secretion at 1 to 10 uM incubated for 24 hrs followed by replacement with fresh medium and measured at day 5 post infection by ELISA; assay type: functional, organism-based; details: dose 1-10 µM

SMILES | IC50 (Hepatitis B virus [1]) [nM] | IC50 [2] [nM] | half-life at 1 µM [3] [min] | microsomal CLint at 1 µM [4] [µL/min/mg] | IC50 [5] [nM] | IC50 [6] [nM] | inhibition (INH) [7] | Activity (Hepatitis B virus [8])
C[C@H](CCc1cn([C@@H]2CC[C@@]3(C)[C@@H](C2)C[C@H](O)[C@@H]2[C@@H]3CC[C@]3(C)[C@@H]([C@H](C)CCC(=O)NCCS(=O)(=O)O)CC[C@@H]23)nn1)[C@H]1CC[C@H]2[C@@H]3[C@@H](O)C[C@@H]4C[C@H](O)CC[C@]4(C)[C@H]3CC[C@]12C | 24 | > 10000 | 12.6 | 55.2 | > 10000 | 24.5 | – | –
CC(=O)O[C@@H]1CC[C@@]2(C)[C@@H](C1)C[C@H](O)[C@@H]1[C@@H]2CC[C@]2(C)[C@@H]([C@H](C)CCC(=O)NCCS(=O)(=O)O)CC[C@@H]12 | – | – | – | – | – | – | Not Active | inactive

Source: ChEMBL document CHEMBL4834431, “Design of Dimeric Bile Acid Derivatives as Potent and Selective Human NTCP Inhibitors” (J Med Chem, 2021)
